Experimental data as given in PMC4138103 (PLoS ONE, 2014).
Like-named read-outs stand apart in the source and are kept apart here.

System: Sprague-Dawley rats
Assay: Bone geometry and densitometry (pQCT of tibia)
Type: in vivo, Rattus norvegicus
Parameters: key to Dose response: Densitometry, diaphysis, Cortical area / Dose response: Densitometry, metaphysis, Trabecular area: D: significant dose response (for results, see Table 2); T: significant trend
Details: for CED, Cortical area of diaphysis / CED-L, Cortical area of diaphysis: M; for Emax: Rattus norvegicus
Protocol: Hind limbs were collected and frozen at −20°C. Dissected right tibias were cleaned from soft tissue and stored in Ringer solution at −20°C until analysis. The length of each bone was measured using an electronic sliding caliper to the nearest 0.01 mm (IP65, Sylvac SA, Crissier, Switzerland). […] The thresholds for defining trabecular bone were 280 and 400 mg/cm^3, while cortical bone was defined above a threshold of 710 mg/cm^3. The voxel size was 0.07 mm.
Data were also analyzed using the BMD method, which is based on dose-response modeling of the full data set using a nested family of exponential and Hill models. The analyses were done on data of males and females combined, using sex as a covariate. […] In that case, different Critical Effect Doses (CEDs) and CEDs at the lowest bound of the confidence interval (CED-L) were generated for each sex. If no difference between sexes is detected, a CED and CED-Ls for the combined data is generated. However, this was also done if the curve fits are close, and separate analyses for males and females were then performed manually. CEDs and CED-Ls were calculated at the predefined Critical Effect Size (CES) of 5% (EFSA standard) or 10%.

[1] = F, CES 5%, model E2, adipose tissue concentration based
[2] = F, CES 10%, model E2, adipose tissue concentration based
[3] = CES 5%, model E2, adipose tissue concentration based
[4] = CES 10%, model E2, adipose tissue concentration based
[5] = females, CES 5%, total dose based
[6] = males, CES 5%, total dose based
[7] = tibia, females, total dose 3 mg/kg bw
[8] = tibia, females, total dose 10 mg/kg bw
[9] = tibia, females, total dose 30 mg/kg bw
[10] = tibia, females, total dose 100 mg/kg bw
[11] = tibia, females, total dose 300 mg/kg bw
[12] = tibia, females, total dose 1000 mg/kg bw
[13] = tibia, females, total dose 1700 mg/kg bw
[14] = tibia, males, total dose 3 mg/kg bw
[15] = tibia, males, total dose 10 mg/kg bw
[16] = tibia, males, total dose 30 mg/kg bw
[17] = tibia, males, total dose 100 mg/kg bw
[18] = tibia, males, total dose 300 mg/kg bw
[19] = tibia, males, total dose 1000 mg/kg bw
[20] = tibia, males, total dose 1700 mg/kg bw

## Clc1cc(Cl)c(-c2cc(Cl)c(Cl)c(Cl)c2Cl)cc1Cl [PCB 180, 2,2′,3′,4,4′,5,5′-heptachlorobiphenyl]
[1]
  CED, Trabecular area of metaphysis: 6230 µg/g lipid
  CED-L, Trabecular area of metaphysis: 3714 µg/g lipid
[2]
  CED, Trabecular area of metaphysis: 12200 µg/g lipid
  CED-L, Trabecular area of metaphysis: 7255 µg/g lipid
[3]
  CED, Cortical area of diaphysis: 5930 µg/g lipid
  CED-L, Cortical area of diaphysis: 3506 µg/g lipid
[4]
  CED, Cortical area of diaphysis: 12200 µg/g lipid
  CED-L, Cortical area of diaphysis: 7202 µg/g lipid
F, model E2, controls vs high dose according to the fitted model, read-out: Maximum response, Trabecular area of metaphysis
  Emax: 9.25%
females, controls vs high dose, fitted model, read-out: Trabecular area of metaphysis, Maximum response
  Emax: 8.2%
males, controls vs high dose, fitted model, read-out: Cortical area of diaphysis, Maximum response
  Emax: -6.1%
Model E2, controls vs high dose according to the fitted model, read-out: Maximum response, Cortical area of diaphysis
  Emax: -6.19%
[5]
  Trabecular area of metaphysis, CED: 1040 mg/kg bw
  Trabecular area of metaphysis, CED-L: 602 mg/kg bw
females, adipose tissue concentration based
  Trabecular area of metaphysis, CED: 6230 µg/g lipid
females, controls vs high dose, fitted model
  Trabecular area of metaphysis, Maximum response: 8.30%
[6]
  Cortical area of diaphysis, CED: 1380 mg/kg bw
  Cortical area of diaphysis, CED-L: 820 mg/kg bw
males, adipose tissue concentration based
  Cortical area of tibial diaphysis, CED: 5930 µg/g lipid
[7]
  Densitometry, diaphysis: Cortical area: 3.25 mm2
  Densitometry, diaphysis: Cortical density: 1315 mg/cm3
  Densitometry, diaphysis: Cortical thickness: 0.49 mm
  Densitometry, diaphysis: Endosteal circumference: 5.06 mm
  Densitometry, diaphysis: Periosteal circumference: 8.15 mm
  Densitometry, metaphysis: Total density: 570 mg/cm3
  Densitometry, metaphysis: Trabecular area: 5.33 mm2
  Densitometry, metaphysis: Trabecular density: 195 mg/cm3
[8]
  Densitometry, diaphysis: Cortical area: 3.22 mm2
  Densitometry, diaphysis: Cortical density: 1312 mg/cm3
  Densitometry, diaphysis: Cortical thickness: 0.49 mm
  Densitometry, diaphysis: Endosteal circumference: 5.06 mm
  Densitometry, diaphysis: Periosteal circumference: 8.12 mm
  Densitometry, metaphysis: Total density: 571 mg/cm3
  Densitometry, metaphysis: Trabecular area: 5.37 mm2
  Densitometry, metaphysis: Trabecular density: 199 mg/cm3
[9]
  Densitometry, diaphysis: Cortical area: 3.23 mm2
  Densitometry, diaphysis: Cortical density: 1311 mg/cm3
  Densitometry, diaphysis: Cortical thickness: 0.49 mm
  Densitometry, diaphysis: Endosteal circumference: 5.08 mm
  Densitometry, diaphysis: Periosteal circumference: 8.14 mm
  Densitometry, metaphysis: Total density: 569 mg/cm3
  Densitometry, metaphysis: Trabecular area: 5.52 mm2
  Densitometry, metaphysis: Trabecular density: 211 mg/cm3
[10]
  Densitometry, diaphysis: Cortical area: 3.21 mm2
  Densitometry, diaphysis: Cortical density: 1307 mg/cm3
  Densitometry, diaphysis: Cortical thickness: 0.49 mm
  Densitometry, diaphysis: Endosteal circumference: 4.95 mm
  Densitometry, diaphysis: Periosteal circumference: 8.06 mm
  Densitometry, metaphysis: Total density: 586 mg/cm3
  Densitometry, metaphysis: Trabecular area: 4.99 mm2
  Densitometry, metaphysis: Trabecular density: 209 mg/cm3
[11]
  Densitometry, diaphysis: Cortical area: 3.26 mm2
  Densitometry, diaphysis: Cortical density: 1310 mg/cm3
  Densitometry, diaphysis: Cortical thickness: 0.50 mm
  Densitometry, diaphysis: Endosteal circumference: 5.01 mm
  Densitometry, diaphysis: Periosteal circumference: 8.13 mm
  Densitometry, metaphysis: Total density: 581 mg/cm3
  Densitometry, metaphysis: Trabecular area: 5.25 mm2
  Densitometry, metaphysis: Trabecular density: 214 mg/cm3
[12]
  Densitometry, diaphysis: Cortical area: 3.23 mm2
  Densitometry, diaphysis: Cortical density: 1309 mg/cm3
  Densitometry, diaphysis: Cortical thickness: 0.49 mm
  Densitometry, diaphysis: Endosteal circumference: 4.97 mm
  Densitometry, diaphysis: Periosteal circumference: 8.08 mm
  Densitometry, metaphysis: Total density: 574 mg/cm3
  Densitometry, metaphysis: Trabecular area: 5.41 mm2
  Densitometry, metaphysis: Trabecular density: 209 mg/cm3
[13]
  Densitometry, diaphysis: Cortical area: 3.10 mm2
  Densitometry, diaphysis: Cortical density: 1307 mg/cm3
  Densitometry, diaphysis: Cortical thickness: 0.48 mm
  Densitometry, diaphysis: Endosteal circumference: 5.01 mm
  Densitometry, diaphysis: Periosteal circumference: 8.00 mm
  Densitometry, metaphysis: Total density: 562 mg/cm3
  Densitometry, metaphysis: Trabecular area: 5.84 mm2
  Densitometry, metaphysis: Trabecular density: 221 mg/cm3
tibia, females, total doses 0-1700 mg/kg bw
  Dose response: Densitometry, metaphysis, Trabecular area: D
[14]
  Densitometry, diaphysis: Cortical area: 4.04 mm2
  Densitometry, diaphysis: Cortical density: 1321 mg/cm3
  Densitometry, diaphysis: Cortical thickness: 0.56 mm
  Densitometry, diaphysis: Endosteal circumference: 5.47 mm
  Densitometry, diaphysis: Periosteal circumference: 8.98 mm
  Densitometry, metaphysis: Total density: 493 mg/cm3
  Densitometry, metaphysis: Trabecular area: 8.42 mm2
  Densitometry, metaphysis: Trabecular density: 174 mg/cm3
[15]
  Densitometry, diaphysis: Cortical area: 3.95 mm2
  Densitometry, diaphysis: Cortical density: 1314 mg/cm3
  Densitometry, diaphysis: Cortical thickness: 0.54 mm
  Densitometry, diaphysis: Endosteal circumference: 5.55 mm
  Densitometry, diaphysis: Periosteal circumference: 8.97 mm
  Densitometry, metaphysis: Total density: 465 mg/cm3
  Densitometry, metaphysis: Trabecular area: 8.96 mm2
  Densitometry, metaphysis: Trabecular density: 139 mg/cm3
[16]
  Densitometry, diaphysis: Cortical area: 4.08 mm2
  Densitometry, diaphysis: Cortical density: 1316 mg/cm3
  Densitometry, diaphysis: Cortical thickness: 0.56 mm
  Densitometry, diaphysis: Endosteal circumference: 5.58 mm
  Densitometry, diaphysis: Periosteal circumference: 9.08 mm
  Densitometry, metaphysis: Total density: 485 mg/cm3
  Densitometry, metaphysis: Trabecular area: 8.63 mm2
  Densitometry, metaphysis: Trabecular density: 165 mg/cm3
[17]
  Densitometry, diaphysis: Cortical area: 4.06 mm2
  Densitometry, diaphysis: Cortical density: 1300 mg/cm3
  Densitometry, diaphysis: Cortical thickness: 0.55 mm
  Densitometry, diaphysis: Endosteal circumference: 5.70 mm
  Densitometry, diaphysis: Periosteal circumference: 9.14 mm
  Densitometry, metaphysis: Total density: 458 mg/cm3
  Densitometry, metaphysis: Trabecular area: 9.57 mm2
  Densitometry, metaphysis: Trabecular density: 159 mg/cm3
[18]
  Densitometry, diaphysis: Cortical area: 4.06 mm2
  Densitometry, diaphysis: Cortical density: 1313 mg/cm3
  Densitometry, diaphysis: Cortical thickness: 0.56 mm
  Densitometry, diaphysis: Endosteal circumference: 5.53 mm
  Densitometry, diaphysis: Periosteal circumference: 9.03 mm
  Densitometry, metaphysis: Total density: 474 mg/cm3
  Densitometry, metaphysis: Trabecular area: 8.85 mm2
  Densitometry, metaphysis: Trabecular density: 150 mg/cm3
[19]
  Densitometry, diaphysis: Cortical area: 3.88 mm2
  Densitometry, diaphysis: Cortical density: 1306 mg/cm3
  Densitometry, diaphysis: Cortical thickness: 0.54 mm
  Densitometry, diaphysis: Endosteal circumference: 5.51 mm
  Densitometry, diaphysis: Periosteal circumference: 8.90 mm
  Densitometry, metaphysis: Total density: 468 mg/cm3
  Densitometry, metaphysis: Trabecular area: 8.69 mm2
  Densitometry, metaphysis: Trabecular density: 154 mg/cm3
[20]
  Densitometry, diaphysis: Cortical area: 3.80 mm2
  Densitometry, diaphysis: Cortical density: 1315 mg/cm3
  Densitometry, diaphysis: Cortical thickness: 0.53 mm
  Densitometry, diaphysis: Endosteal circumference: 5.54 mm
  Densitometry, diaphysis: Periosteal circumference: 8.86 mm
  Densitometry, metaphysis: Total density: 483 mg/cm3
  Densitometry, metaphysis: Trabecular area: 8.64 mm2
  Densitometry, metaphysis: Trabecular density: 164 mg/cm3
tibia, males, total doses 0-1700 mg/kg bw
  Dose response: Densitometry, diaphysis, Cortical area: D
